In PubChem BioAssay AID248 (DTP/NCI, 2004):
Toxic doses and inconclusive results are not listed. Rule as the data show it: active = T/C of 150% or more; inactive = T/C below 125%.

System: L1210 leukemia ip in BDF1 mice, survival T/C
Assay: NCI In Vivo Anticancer Drug Screen. Data for tumor model L1210 Leukemia (intraperitoneal) in B6D2F1 (BDF1) mice
Conditions: endpoint: mean survival time, higher = longer survival
Outline: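 In this screen, tumor-bearing mice given compound are compared to those given vehicle, and their survival values are reported as a treated-to-control quotient.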

[1] = dose: 100.0 mg/kg/injection, schedule: Q04DX003 (ip), vehicle: saline
[2] = dose: 200.0 mg/kg/injection, schedule: Q04DX003 (ip), vehicle: saline
[3] = dose: 100.0 mg/kg/injection, schedule: Q01DX009 (ip), vehicle: Klucel (hydroxypropylcellulose) (HPC)
[4] = dose: 100.0 mg/kg/injection, schedule: Q01DX009 (ip), vehicle: saline
[5] = dose: 200.0 mg/kg/injection, schedule: Q01DX009 (ip), vehicle: Klucel (hydroxypropylcellulose) (HPC)
[6] = dose: 200.0 mg/kg/injection, schedule: Q01DX009 (ip), vehicle: saline
[7] = dose: 400.0 mg/kg/injection, schedule: Q01DX009 (ip), vehicle: saline
[8] = dose: 100.0 mg/kg/injection, schedule: Q04DX003 (ip), vehicle: saline with Tween-80
[9] = dose: 200.0 mg/kg/injection, schedule: Q04DX003 (ip), vehicle: saline with Tween-80
[10] = dose: 400.0 mg/kg/injection, schedule: Q04DX003 (ip), vehicle: saline with Tween-80
[11] = dose: 100.0 mg/kg/injection, schedule: Q01DX001 (ip), vehicle: saline
[12] = dose: 200.0 mg/kg/injection, schedule: Q01DX001 (ip), vehicle: saline
[13] = dose: 400.0 mg/kg/injection, schedule: Q01DX001 (ip), vehicle: saline
[14] = dose: 100.0 mg/kg/injection, schedule: Q04DX003 (ip), vehicle: Klucel (hydroxypropylcellulose) (HPC)
[15] = dose: 200.0 mg/kg/injection, schedule: Q04DX003 (ip), vehicle: Klucel (hydroxypropylcellulose) (HPC)
[16] = dose: 400.0 mg/kg/injection, schedule: Q01DX009 (ip), vehicle: Klucel (hydroxypropylcellulose) (HPC)
[17] = dose: 400.0 mg/kg/injection, schedule: Q04DX003 (ip), vehicle: Klucel (hydroxypropylcellulose) (HPC)
[18] = dose: 100.0 mg/kg/injection, schedule: Q01DX001 (ip), vehicle: Klucel (hydroxypropylcellulose) (HPC)
[19] = dose: 200.0 mg/kg/injection, schedule: Q01DX001 (ip), vehicle: Klucel (hydroxypropylcellulose) (HPC)
[20] = dose: 400.0 mg/kg/injection, schedule: Q01DX001 (ip), vehicle: Klucel (hydroxypropylcellulose) (HPC)
[21] = dose: 50.0 mg/kg/injection, schedule: Q01DX009 (ip), vehicle: saline

Measured: T/C

O=C(Nc1cccc2ccccc12)OCCF
inactive: dose: 5.0 mg/kg/injection, schedule: Q01DX001 (ip), vehicle: carboxymethylcellulose (CMC) 101 % of control | dose: 10.0 mg/kg/injection, schedule: Q01DX001 (ip), vehicle: carboxymethylcellulose (CMC) 106 % of control | dose: 20.0 mg/kg/injection, schedule: Q01DX001 (ip), vehicle: carboxymethylcellulose (CMC) 104 % of control | dose: 40.0 mg/kg/injection, schedule: Q01DX001 (ip), vehicle: carboxymethylcellulose (CMC) 104 % of control | dose: 80.0 mg/kg/injection, schedule: Q01DX001 (ip), vehicle: carboxymethylcellulose (CMC) 106 % of control

O=C(Nc1ccccc1)C(Br)c1ccccc1 (stereo not given)
inactive: [1] 91 % of control | [2] 90 % of control

NC(=O)C(N)CSCc1ccccc1 (stereo not given)
inactive: dose: 50.0 mg/kg/injection, schedule: Q01DX009 (ip), vehicle: Klucel (hydroxypropylcellulose) (HPC) 95 % of control | [3] 95 % of control | [4] 89 % of control | [5] 100 % of control | [6] 91 % of control | [7] 91 % of control

NC(=O)c1cc([N+](=O)[O-])c(N)c([N+](=O)[O-])c1
inactive: dose: 100.0 mg/kg/injection, schedule: Q01DX001 (ip), vehicle: saline with Tween-80 100 % of control | dose: 200.0 mg/kg/injection, schedule: Q01DX001 (ip), vehicle: saline with Tween-80 95 % of control | dose: 400.0 mg/kg/injection, schedule: Q01DX001 (ip), vehicle: saline with Tween-80 100 % of control

Cc1cc(I)c(C)s1
inactive: [8] 96 % of control | [9] 96 % of control | [10] 98 % of control

CC1C[N+](C)(C)N=C1[O-] (stereo not given)
inactive: [11] 104 % of control | [12] 98 % of control | [13] 95 % of control

CN/N=C1\CCC2C3CCc4cc(O)ccc4C3CCC12C (stereo not given)
inactive: [3] 95 % of control | [5] 89 % of control

CN(C)[C](=O)[Pb]([c]1ccccc1)([c]1ccccc1)[c]1ccccc1
inactive: dose: 100.0 mg/kg/injection, schedule: Q04DX002 (ip), vehicle: saline with Tween-80 98 % of control | dose: 200.0 mg/kg/injection, schedule: Q04DX002 (ip), vehicle: saline with Tween-80 98 % of control

CCOC(=O)C(/C=N/C(N)=O)=C(\C)O
inactive: [3] 105 % of control | [14] 102 % of control | [5] 95 % of control | [15] 101 % of control | [16] 106 % of control | [17] 92 % of control

COc1ccc(OC)c(NC(=O)Nc2ccc(CCO)cc2)c1
inactive: [4] 99 % of control | [6] 102 % of control | [7] 103 % of control

COc1ccc(NC(C)=O)cc1S(=O)(=O)F
inactive: [18] 93 % of control | [14] 102 % of control | [19] 88 % of control | [15] 104 % of control | [20] 93 % of control | [17] 96 % of control

CC1CC([O-])=N/[N+]1=C/c1ccc(N(C)C)cc1 (stereo not given)
inactive: dose: 80.0 mg/kg/injection, schedule: Q01DX001 (ip), vehicle: saline with Tween-80 98 % of control | dose: 160.0 mg/kg/injection, schedule: Q01DX001 (ip), vehicle: saline with Tween-80 98 % of control | dose: 320.0 mg/kg/injection, schedule: Q01DX001 (ip), vehicle: saline with Tween-80 92 % of control

C1CCC2=NCCCN2CC1
inactive: dose: 5.0 mg/kg/injection, schedule: Q01DX001 (ip), vehicle: saline 101 % of control | dose: 10.0 mg/kg/injection, schedule: Q01DX001 (ip), vehicle: saline 101 % of control | dose: 20.0 mg/kg/injection, schedule: Q01DX001 (ip), vehicle: saline 103 % of control | dose: 40.0 mg/kg/injection, schedule: Q01DX001 (ip), vehicle: saline 97 % of control

CCCCCCCCCCCCCCCC(C)(C)O
inactive: [3] 102 % of control | [14] 96 % of control | [5] 100 % of control | [15] 96 % of control | [16] 102 % of control | [17] 101 % of control

O=C(Nc1ccccc1F)Oc1cccc(C(F)(F)F)c1
inactive: dose: 25.0 mg/kg/injection, schedule: Q01DX009 (ip), vehicle: saline 103 % of control | [21] 110 % of control | [4] 103 % of control

COC(=O)NC(C)(NC(=O)OC)C(=O)OC
inactive: dose: 100.0 mg/kg/injection, schedule: Q01DX009 (ip), vehicle: saline with Tween-80 104 % of control | dose: 200.0 mg/kg/injection, schedule: Q01DX009 (ip), vehicle: saline with Tween-80 106 % of control | dose: 400.0 mg/kg/injection, schedule: Q01DX009 (ip), vehicle: saline with Tween-80 97 % of control

CCCCCCOCC(O)CNCCN (stereo not given)
inactive: dose: 6.25 mg/kg/injection, schedule: Q04DX003 (ip), vehicle: saline with Tween-80 95 % of control | dose: 12.5 mg/kg/injection, schedule: Q04DX003 (ip), vehicle: saline with Tween-80 90 % of control | dose: 25.0 mg/kg/injection, schedule: Q04DX003 (ip), vehicle: saline with Tween-80 96 % of control

c1ccc2nc3c(cc2c1)NCC3
inactive: [18] 95 % of control | [19] 97 % of control | [20] 109 % of control

OC1C=Cc2ccccc21 (stereo not given)
inactive: dose: 100.0 mg/kg/injection, schedule: Q04DX002 (ip), vehicle: other 97 % of control | dose: 200.0 mg/kg/injection, schedule: Q04DX002 (ip), vehicle: other 97 % of control

O=C(C[n+]1ccc2ccccc2c1)c1cccc([N+](=O)[O-])c1
inactive: [8] 105 % of control | [9] 97 % of control | [10] 100 % of control

c1ccc(C2=NC3CCCCC3N=C2c2ccccc2)cc1 (stereo not given)
inactive: [8] 101 % of control | [9] 95 % of control | [10] 96 % of control

OCC1OC(n2cc(Br)c3c(=S)nc[nH]c32)C(O)C1O (stereo not given)
inactive: dose: 100.0 mg/kg/injection, schedule: Q01DX001 (ip), vehicle: carboxymethylcellulose (CMC) 104 % of control | dose: 200.0 mg/kg/injection, schedule: Q01DX001 (ip), vehicle: carboxymethylcellulose (CMC) 110 % of control | dose: 400.0 mg/kg/injection, schedule: Q01DX001 (ip), vehicle: carboxymethylcellulose (CMC) 106 % of control

CCOC(=O)C(=N\Nc1ccc(C)c(C)c1)/C(C)=N\NC(N)=S
inactive: dose: 75.0 mg/kg/injection, schedule: Q01DX001 (ip), vehicle: saline 87 % of control | dose: 150.0 mg/kg/injection, schedule: Q01DX001 (ip), vehicle: saline 89 % of control

O=P(CCCl)(CCCl)CCCl
inactive: [21] 87 % of control | dose: 50.0 mg/kg/injection, schedule: Q04DX003 (ip), vehicle: saline 98 % of control | [4] 87 % of control | [1] 106 % of control | [6] 90 % of control | [2] 101 % of control | dose: 400.0 mg/kg/injection, schedule: Q04DX003 (ip), vehicle: saline 101 % of control

CC(=O)Nc1ccc2c(c1)Cc1cc(Cl)ccc1-2
inactive: dose: 50.0 mg/kg/injection, schedule: Q01DX001 (ip), vehicle: saline 105 % of control | [11] 100 % of control | [12] 103 % of control | [13] 105 % of control
